Tested on: androgen dependent signaling (androgen sensitive organs)
Experiment: Hershberger Assay
Format: in vivo, rat
Conditions: 3 mg/kg (positive control), 10 days, with TP 0.4 mg/kg, castrated rats, mean ± SD (n=6)
Description: The effect of AR antagonists on androgen dependent signaling in vivo was assessed using the Hershberger assay. In this assay, peripubertal castrated male Sprague-Dawley rats were administered AR antagonists described herein in the presence of testosterone (0.4 mg/kg testosterone propionate) and the weights of androgen dependent organs measured. Dosing was continued for 10 days and measurements taken 24 h after the last dose. The extent of antagonism of AR and consequent inhibition of organ growth was evaluated by comparison to the castration control. Compounds of Formula (I) were dosed orally QD and an endpoint assessment made by change in weight of 5 androgen sensitive organs (ASO): Paired Cowper's Glands (CG), Seminal Vesicles with Fluids and Coagulating Glands (SVCG), Glans Penis (GP), Ventral Prostate (VP) and Levator Ani-Bulbocavernosus Complex (LABC)). According to assay guidelines, statistically significant suppression of ASO is required in 2 of 5 organs for a compound to be classified as an anti-androgen (analysis was performed by t-test/Mann-Whitney).
Unless otherwise stated, compounds defined herein were administered at 30 mg/kg and flutamide (FT), positive control, at 3 mg/kg. All compounds were co-administered with testosterone propionate (TP, 0.4 mg/kg) which was also administered alone, untreated control, (castrated only rats served as the control for complete androgen blockade). A statistically significant change in ASO achieved in at least 2 of 5 organs was indicative of an active compound.

With CC(C)C(=O)Nc1ccc([N+](=O)[O-])c(C(F)(F)F)c1 [Flutamide, flutamide, reference compound] the “ASO Organ Growth (% of TP control) SVCG” value was 16.6 ± 16.3 % of TP control and the “ASO Organ Growth (% of TP control) VP” value was 24.4 ± 35.5 % of TP control.

Reference: patent publication US10981926B2 (Janssen Pharmaceutica NV, priority 2016, dated 2021)
